According to ChEMBL document CHEMBL1145559, “Design, synthesis and in vitro antiprotozoal activity of benzimidazole-pentamidine hybrids” (Bioorg Med Chem Lett, 2008):
The source made the active and inactive calls. The calls are words filed in the database; no cut-off is given here.

Columns and labels:
Plasmodium berghei [1] = experiment: Antiprotozoal activity against Plasmodium berghei; assay type: functional, organism-based
Leishmania mexicana = experiment: Antiprotozoal activity against Leishmania mexicana; assay type: functional, organism-based
Giardia intestinalis = experiment: Antiprotozoal activity against Giardia lamblia; assay type: functional, organism-based; conditions: Giardia duodenalis
Entamoeba histolytica = experiment: Antiprotozoal activity against Entamoeba histolytica; assay type: functional, organism-based
Trichomonas vaginalis = experiment: Antiprotozoal activity against Trichomonas vaginalis; assay type: functional, organism-based
Plasmodium berghei [2] = experiment: Antiprotozoal activity as cell damage against Plasmodium berghei; assay type: functional, organism-based
Plasmodium berghei [3] = experiment: Antiprotozoal activity against Plasmodium berghei at 100 uM; assay type: functional

**Q.** Which results are given for `COc1cc(-c2nc3cc(C(F)(F)F)ccc3[nH]2)ccc1OCCCCCOc1ccc(-c2nc3cc(C(F)(F)F)ccc3[nH]2)cc1OC`?
**A.** IC50 (Plasmodium berghei [1]): 63.1 µM; IC50 (Leishmania mexicana): > 50 µM

**Q.** Which IC50 (Plasmodium berghei [1]) does the source give for `FC(F)(F)c1ccc2[nH]c(-c3ccc(OCCCCCOc4ccc(-c5nc6cc(C(F)(F)F)ccc6[nH]5)cc4)cc3)nc2c1` here?
**A.** Its IC50 is 6.53 µM.

**Q.** And the IC50 (Giardia intestinalis)?
**A.** The IC50 was 9.6 µM.

**Q.** And the IC50 (Leishmania mexicana)?
**A.** Its IC50 is > 50 µM.

**Q.** And the IC50 (Entamoeba histolytica)?
**A.** The IC50 was 7.29 µM.

**Q.** And the IC50 (Trichomonas vaginalis)?
**A.** The IC50 was 4.96 µM.

**Q.** What does the source list for `COc1ccc2[nH]c(-c3ccc(OCCCCCOc4ccc(-c5nc6cc(OC)ccc6[nH]5)cc4)cc3)nc2c1`?
**A.** IC50 (Plasmodium berghei [1]): 34.6 µM; IC50 (Giardia intestinalis): 0.435 µM; IC50 (Leishmania mexicana): 0.712 µM; IC50 (Entamoeba histolytica): 0.109 µM; IC50 (Trichomonas vaginalis): 0.164 µM

**Q.** How did the IC50 (Plasmodium berghei [1]) turn out when `COc1cc(-c2nc3cc([N+](=O)[O-])ccc3[nH]2)ccc1OCCCCCOc1ccc(-c2nc3cc([N+](=O)[O-])ccc3[nH]2)cc1OC` was run?
**A.** Its IC50 is 25.9 µM.

**Q.** What about the IC50 (Giardia intestinalis) of the same compound?
**A.** Its IC50 is 3.4 µM.

**Q.** And the IC50 (Leishmania mexicana)?
**A.** Its IC50 is 16.8 µM.

**Q.** What about the IC50 (Entamoeba histolytica) of the same compound?
**A.** Its IC50 is 12.1 µM.

**Q.** What about the IC50 (Trichomonas vaginalis) of the same compound?
**A.** Its IC50 is 0.794 µM.

**Q.** What does the source list for `N=C(N)c1ccc(OCCCCCOc2ccc(C(=N)N)cc2)cc1` [PENTAMIDINE]?
**A.** IC50 (Giardia intestinalis): 4.08 µM; IC50 (Leishmania mexicana): 9.57 µM; Activity (Plasmodium berghei [2]): Active; IC50 (Entamoeba histolytica): 11.8 µM; IC50 (Trichomonas vaginalis): 3.81 µM

**Q.** What does the source list for `O=[N+]([O-])c1ccc2[nH]c(-c3ccc(OCCCCCOc4ccc(-c5nc6cc([N+](=O)[O-])ccc6[nH]5)cc4)cc3)nc2c1`?
**A.** IC50 (Plasmodium berghei [1]): 100 µM; IC50 (Giardia intestinalis): 7.41 µM; IC50 (Leishmania mexicana): > 50 µM; inhibition at 100 µM (Plasmodium berghei [3]): 46%; IC50 (Entamoeba histolytica): 10.2 µM; IC50 (Trichomonas vaginalis): 3.58 µM

**Q.** Which IC50 (Giardia intestinalis) does the source give for `COc1cc(-c2nc3cc(C)ccc3[nH]2)ccc1OCCCCCOc1ccc(-c2nc3cc(C)ccc3[nH]2)cc1OC` here?
**A.** The IC50 was 0.372 µM.

**Q.** What about the IC50 (Leishmania mexicana) of the same compound?
**A.** Its IC50 is > 50 µM.

**Q.** What about the Activity (Plasmodium berghei [3]) of the same compound?
**A.** Its Activity is “inactive”.

**Q.** And the IC50 (Entamoeba histolytica)?
**A.** The IC50 was 4.5 µM.

**Q.** And the IC50 (Trichomonas vaginalis)?
**A.** The IC50 was 1.02 µM.

**Q.** What does the source list for `c1ccc2[nH]c(-c3ccc(OCCCCCOc4ccc(-c5nc6ccccc6[nH]5)cc4)cc3)nc2c1`?
**A.** IC50 (Plasmodium berghei [1]): 100 µM; IC50 (Giardia intestinalis): 1.84 µM; IC50 (Leishmania mexicana): 1.06 µM; inhibition at 100 µM (Plasmodium berghei [3]): 37%; IC50 (Entamoeba histolytica): 0.436 µM; IC50 (Trichomonas vaginalis): 3.18 µM

**Q.** With `Cc1ncc([N+](=O)[O-])n1CCO` [METRONIDAZOLE] as the compound, how does the IC50 (Giardia intestinalis) read?
**A.** The IC50 was 1.29 µM.

**Q.** What about the IC50 (Entamoeba histolytica) of the same compound?
**A.** The IC50 was 0.771 µM.

**Q.** And the IC50 (Trichomonas vaginalis)?
**A.** Its IC50 is 0.286 µM.

**Q.** With `COc1cc(-c2nc3ccccc3[nH]2)ccc1OCCCCCOc1ccc(-c2nc3ccccc3[nH]2)cc1OC` as the compound, how does the IC50 (Plasmodium berghei [1]) read?
**A.** The IC50 was 166 µM.

**Q.** And the IC50 (Giardia intestinalis)?
**A.** The IC50 was 12.7 µM.

**Q.** What about the IC50 (Leishmania mexicana) of the same compound?
**A.** Its IC50 is > 50 µM.

**Q.** And the IC50 (Entamoeba histolytica)?
**A.** Its IC50 is 5.19 µM.

**Q.** What about the IC50 (Trichomonas vaginalis) of the same compound?
**A.** The IC50 was 6.15 µM.

**Q.** How did the IC50 (Plasmodium berghei [1]) turn out when `Cc1ccc2[nH]c(-c3ccc(OCCCCCOc4ccc(-c5nc6cc(C)ccc6[nH]5)cc4)cc3)nc2c1` was run?
**A.** Its IC50 is 100 µM.

**Q.** What about the IC50 (Giardia intestinalis) of the same compound?
**A.** The IC50 was 4.89 µM.

**Q.** What about the IC50 (Leishmania mexicana) of the same compound?
**A.** The IC50 was 0.368 µM.

**Q.** What about the inhibition at 100 µM (Plasmodium berghei [3]) of the same compound?
**A.** Its inhibition at 100 µM is 43%.

**Q.** And the IC50 (Entamoeba histolytica)?
**A.** The IC50 was 0.153 µM.

**Q.** What about the IC50 (Trichomonas vaginalis) of the same compound?
**A.** Its IC50 is 4.16 µM.

**Q.** With `COc1ccc2[nH]c(-c3ccc(OCCCCCOc4ccc(-c5nc6cc(OC)ccc6[nH]5)cc4OC)c(OC)c3)nc2c1` as the compound, how does the IC50 (Plasmodium berghei [1]) read?
**A.** Its IC50 is 24 µM.

**Q.** What about the IC50 (Giardia intestinalis) of the same compound?
**A.** The IC50 was 5.19 µM.

**Q.** What about the IC50 (Leishmania mexicana) of the same compound?
**A.** Its IC50 is > 50 µM.

**Q.** And the IC50 (Entamoeba histolytica)?
**A.** The IC50 was 0.284 µM.

**Q.** What about the IC50 (Trichomonas vaginalis) of the same compound?
**A.** Its IC50 is 6.29 µM.
